Like-named read-outs stand apart in the source and are kept apart here.
Tested on: pediatric patients with advanced solid tumors
Conditions: for Leukopenia (treatment-related AE): laboratory values only
Protocol: This phase 1, multicenter, open-label study was conducted at a total of 8 study sites (3 study sites in the United States and 5 Innovative Therapies for Children with Cancer [ITCC] Consortium centers [2 in the United Kingdom and 3 in France]) between January 31, 2012, and the data cutoff, January 14, 2014 (ClinicalTrials.gov identifier NCT01431534; European Clinical Trials Database [EudraCT] number 2011-000729-55). An enteric-coated tablet formulation of ridaforolimus was orally administered for 5 consecutive days and not administered for 2 consecutive days per week in 28-day cycles until progression, unacceptable toxicity, or consent withdrawal. […] Dose escalation was conducted by using a modified toxicity probability intervals method that targeted a 30% DLT rate and started at 22 mg/m^2 (the equivalent of the adult RP2D [27], a 40-mg dose in adults with a BSA of 1.8 m^2). […] Dosing was adjusted based on BSA and rounded to the nearest 10-mg tablet. Patients were to be treated at sequentially rising dose levels until a preliminary MTD was identified.
Toxicity was graded according to the National Cancer Institute Common Terminology Criteria for Adverse Events, version 4.0 [42]. Safety data were reported for all patients who received at least 1 dose of the study drug. […] Once the RP2D of ridaforolimus was defined, an expansion cohort to be treated at the RP2D was planned to obtain additional safety, tolerability, and pharmacokinetic data.

CO[C@H]1C[C@@H]2CC[C@@H](C)[C@@](O)(O2)C(=O)C(=O)N2CCCC[C@H]2C(=O)O[C@H]([C@H](C)C[C@@H]2CC[C@@H](OP(C)(C)=O)[C@H](OC)C2)CC(=O)[C@H](C)/C=C(\C)[C@@H](O)[C@@H](OC)C(=O)[C@H](C)C[C@H](C)/C=C/C=C/C=C/1C [ridaforolimus]
2 (15) n (%): Vomiting (treatment-related AE) (33 mg/m^2 n = 13, any grade)
2 (50) n (%): Stomatitis (treatment-related AE) (22 mg/m^2 n = 4, any grade) | Thrombocytopenia (treatment-related AE) (22 mg/m^2 n = 4, any grade) | Patients with ≥1 treatment-related adverse event (22 mg/m^2 n = 4, grades 3–4)
3 (100) n (%): Stomatitis (treatment-related AE) (28 mg/m^2 n = 3, any grade)
2 (67) n (%): Leukopenia (treatment-related AE) (28 mg/m^2 n = 3, any grade) | Patients with ≥1 treatment-related adverse event (28 mg/m^2 n = 3, grades 3–4)
0 n (%): Anemia (treatment-related AE) (22 mg/m^2 n = 4, grades 3–4) | Decreased appetite (treatment-related AE) (22 mg/m^2 n = 4, grades 3–4) | Decreased weight (treatment-related AE) (22 mg/m^2 n = 4, grades 3–4) | Diarrhea (treatment-related AE) (22 mg/m^2 n = 4, grades 3–4) | Dry mouth (treatment-related AE) (22 mg/m^2 n = 4, grades 3–4) | Dysgeusia (treatment-related AE) (22 mg/m^2 n = 4, grades 3–4) | Epistaxis (treatment-related AE) (22 mg/m^2 n = 4, grades 3–4) | Fatigue (treatment-related AE) (22 mg/m^2 n = 4, grades 3–4) | Headache (treatment-related AE) (22 mg/m^2 n = 4, grades 3–4) | Hypercholesterolemia (treatment-related AE) (22 mg/m^2 n = 4, grades 3–4) | Hyperglycemia (treatment-related AE) (22 mg/m^2 n = 4, grades 3–4) | Hypertriglyceridemia (treatment-related AE) (22 mg/m^2 n = 4, grades 3–4) | Hypocalcemia (treatment-related AE) (22 mg/m^2 n = 4, grades 3–4) | Hypokalemia (treatment-related AE) (22 mg/m^2 n = 4, grades 3–4) | Increased AST (treatment-related AE) (22 mg/m^2 n = 4, grades 3–4) | Increased alkaline phosphatase (treatment-related AE) (22 mg/m^2 n = 4, grades 3–4) | Increased bilirubin (treatment-related AE) (22 mg/m^2 n = 4, grades 3–4) | Increased γ-glutamyltransferase (treatment-related AE) (22 mg/m^2 n = 4, grades 3–4) | Lymphopenia (treatment-related AE) (22 mg/m^2 n = 4, grades 3–4) | Nausea (treatment-related AE) (22 mg/m^2 n = 4, grades 3–4) | Neutropenia (treatment-related AE) (22 mg/m^2 n = 4, grades 3–4) | Photophobia (treatment-related AE) (22 mg/m^2 n = 4, grades 3–4) | Rash (treatment-related AE) (22 mg/m^2 n = 4, grades 3–4) | Stomatitis (treatment-related AE) (22 mg/m^2 n = 4, grades 3–4) | Thrombocytopenia (treatment-related AE) (22 mg/m^2 n = 4, grades 3–4) | Vomiting (treatment-related AE) (22 mg/m^2 n = 4, grades 3–4) | Leukopenia (treatment-related AE) (22 mg/m^2 n = 4, grades 3–4) | Vomiting (treatment-related AE) (28 mg/m^2 n = 3, any grade) | Anemia (treatment-related AE) (28 mg/m^2 n = 3, grades 3–4) | Decreased appetite (treatment-related AE) (28 mg/m^2 n = 3, grades 3–4) | Decreased weight (treatment-related AE) (28 mg/m^2 n = 3, grades 3–4) | Diarrhea (treatment-related AE) (28 mg/m^2 n = 3, grades 3–4) | Dry mouth (treatment-related AE) (28 mg/m^2 n = 3, grades 3–4) | Dysgeusia (treatment-related AE) (28 mg/m^2 n = 3, grades 3–4) | Epistaxis (treatment-related AE) (28 mg/m^2 n = 3, grades 3–4) | Fatigue (treatment-related AE) (28 mg/m^2 n = 3, grades 3–4) | Headache (treatment-related AE) (28 mg/m^2 n = 3, grades 3–4) | Hyperglycemia (treatment-related AE) (28 mg/m^2 n = 3, grades 3–4) | Hypertriglyceridemia (treatment-related AE) (28 mg/m^2 n = 3, grades 3–4) | Hypocalcemia (treatment-related AE) (28 mg/m^2 n = 3, grades 3–4) | Hypokalemia (treatment-related AE) (28 mg/m^2 n = 3, grades 3–4) | Hypophosphatemia (treatment-related AE) (28 mg/m^2 n = 3, grades 3–4) | Increased AST (treatment-related AE) (28 mg/m^2 n = 3, grades 3–4) | Increased alkaline phosphatase (treatment-related AE) (28 mg/m^2 n = 3, grades 3–4) | Increased bilirubin (treatment-related AE) (28 mg/m^2 n = 3, grades 3–4) | Increased γ-glutamyltransferase (treatment-related AE) (28 mg/m^2 n = 3, grades 3–4) | Lymphopenia (treatment-related AE) (28 mg/m^2 n = 3, grades 3–4) | Nausea (treatment-related AE) (28 mg/m^2 n = 3, grades 3–4) | Neutropenia (treatment-related AE) (28 mg/m^2 n = 3, grades 3–4) | Oral herpes (treatment-related AE) (28 mg/m^2 n = 3, grades 3–4) | Photophobia (treatment-related AE) (28 mg/m^2 n = 3, grades 3–4) | Rash (treatment-related AE) (28 mg/m^2 n = 3, grades 3–4) | Stomatitis (treatment-related AE) (28 mg/m^2 n = 3, grades 3–4) | Vomiting (treatment-related AE) (28 mg/m^2 n = 3, grades 3–4) | Leukopenia (treatment-related AE) (28 mg/m^2 n = 3, grades 3–4) | Anemia (treatment-related AE) (33 mg/m^2 n = 13, grades 3–4) | Decreased appetite (treatment-related AE) (33 mg/m^2 n = 13, grades 3–4) | Decreased weight (treatment-related AE) (33 mg/m^2 n = 13, grades 3–4) | Diarrhea (treatment-related AE) (33 mg/m^2 n = 13, grades 3–4) | Dry mouth (treatment-related AE) (33 mg/m^2 n = 13, grades 3–4) | Dysgeusia (treatment-related AE) (33 mg/m^2 n = 13, grades 3–4) | Epistaxis (treatment-related AE) (33 mg/m^2 n = 13, grades 3–4) | Fatigue (treatment-related AE) (33 mg/m^2 n = 13, grades 3–4) | Headache (treatment-related AE) (33 mg/m^2 n = 13, grades 3–4) | Hypercholesterolemia (treatment-related AE) (33 mg/m^2 n = 13, grades 3–4) | Hyperglycemia (treatment-related AE) (33 mg/m^2 n = 13, grades 3–4) | Hypocalcemia (treatment-related AE) (33 mg/m^2 n = 13, grades 3–4) | Hypokalemia (treatment-related AE) (33 mg/m^2 n = 13, grades 3–4) | Hypophosphatemia (treatment-related AE) (33 mg/m^2 n = 13, grades 3–4)
1 (8) n (%): Hypertriglyceridemia (treatment-related AE) (33 mg/m^2 n = 13, grades 3–4) | Increased AST (treatment-related AE) (33 mg/m^2 n = 13, grades 3–4)
1 patients: Patients discontinued due to an adverse event (grade 5 gastric perforation related to underlying disease) (33 mg/m^2 (n = 13), 8%)
1 (33) n (%): Thrombocytopenia (treatment-related AE) (28 mg/m^2 n = 3, any grade) | Hypercholesterolemia (treatment-related AE) (28 mg/m^2 n = 3, grades 3–4) | Increased ALT (treatment-related AE) (28 mg/m^2 n = 3, grades 3–4) | Thrombocytopenia (treatment-related AE) (28 mg/m^2 n = 3, grades 3–4)
1 patient: Patients with serious adverse events related to study treatment (22 mg/m^2, grade 3 oral herpes) | Patients with DLT (grade 3 increased ALT) (33 mg/m^2, 18 patients evaluable for DLTs overall)
1 (25) n (%): Vomiting (treatment-related AE) (22 mg/m^2 n = 4, any grade) | Leukopenia (treatment-related AE) (22 mg/m^2 n = 4, any grade) | Hypophosphatemia (treatment-related AE) (22 mg/m^2 n = 4, grades 3–4) | Increased ALT (treatment-related AE) (22 mg/m^2 n = 4, grades 3–4) | Oral herpes (treatment-related AE) (22 mg/m^2 n = 4, grades 3–4)
3 (23) n (%): Increased ALT (treatment-related AE) (33 mg/m^2 n = 13, grades 3–4)
2 patients: Patients with serious adverse events related to study treatment (33 mg/m^2, grade 2 rectal pain, grade 2 seizure)
4 (31) n (%): Leukopenia (treatment-related AE) (33 mg/m^2 n = 13, any grade)
10 (77) n (%): Stomatitis (treatment-related AE) (33 mg/m^2 n = 13, any grade) | Thrombocytopenia (treatment-related AE) (33 mg/m^2 n = 13, any grade)

Reference: publication PMC5356695, “A phase 1 study of oral ridaforolimus in pediatric patients with advanced solid tumors” (Oncotarget, 2016)
